Data: patent publication US11976076B1 (priority 2023, dated 2024)
Values after ≈ are worked out from the molar mass of the structure shown.

Tests used:
[1] = tested on: Mycobacterium tuberculosis H37Rv (ATCC: 25177); test: Resazurin Microplate Assay (REMA), anti-tubercular activity against H37Rv; format: cell-based; settings: 192 h, read-out: Anti-tubercular activity (MIC) H37Rv

Row | Structure (SMILES) | MIC [1] [µg/mL] | melting point [°C]
1 | O=c1[nH]c(=S)[nH]c2[nH]c(=S)nc(-c3c[nH]c4ccccc34)c12 [Compound 4b, 5-(1H-Indol-3-yl)-2,7-dithioxo-2,3,7,8-tetrahydropyrimido[4,5-d]pyrimidin-4(1H)-one] | 2 (≈ 6.11 µM) | 188 to 190
2 | O=c1[nH]c(=O)c2c(-c3c[nH]c4ccccc34)nc(=S)[nH]c2[nH]1 [Compound 4a, 5-(1H-Indol-3-yl)-7-thioxo-7,8-dihydropyrimido[4,5-d]pyrimidine-2,4(1H,3H)-dione] | 4 (≈ 12.8 µM) | 114 to 116
3 | Cn1c(=O)c2c(-c3c[nH]c4ccccc34)nc(=S)[nH]c2n(C)c1=O [Compound 4c, 5-(1H-Indol-3-yl)-1,3-dimethyl-7-thioxo-7,8-dihydropyrimido[4,5-d]pyrimidine-2,4(1H,3H)-dione] | 1 (≈ 2.95 µM) | 258 to 260
